Data published in patent publication US6686382B2, “Sulfonamides and derivatives thereof that modulate the activity of endothelin” (Encysive Pharmaceuticals Inc., priority 1999, dated 2004).

Assays:
CYP2C19 = biological target: T1, CYP2C19 (Homo sapiens, UniProt P33261); test: Cytochrome P450 enzyme assay, CYP2C19 (Gentest Supersomes, fluorometric); type: in vitro ADME; conditions: human recombinant enzyme, mean IC50; read-out: CP450 2C19 IC50
T1 construct: purchased Gentest Corporation P259
Protocol: In vitro assays to determine the concentration of the compounds provided herein required for 50% inhibition of substrate metabolism (IC50) by different human cytochrome P450 enzymes (2C9, 2C19, 3A4) were conducted using human recombinant cytochrome P450 enzyme assays, developed by Gentest Corporation. These assays contain Gentest Supersomes™ (specific human cytochrome P450 enzyme, co-expressed with P450 reductase and cytochrome b5), a NADPH regenerating system, substrate and a concentration range of the compounds provided herein. The fluorescent product was the measured end point for these assays. IC50s were calculated using a four-parameter logistic equation with the bottom fixed at 0% inhibition and the top fixed at 100% inhibition. (Values are the mean IC50±SD when n is greater than 1.)
Assays were conducted in 96-well microtiter plates using fluorometric assays developed by Gentest Corporation. The 12 wells in each row were used for one inhibition curve. Wells 1 to 8 contained serial 1:3 dilutions of the test compound. Wells 9 to 12 contained no inhibitor and wells 11 and 12 were blanks for background fluorescence (stop solution was added before the enzyme). All concentration curves were performed in duplicate. Incubations were initiated by the addition of enzyme and substrate to the pre-warmed reaction mixture. After a specific incubation period, the reaction was stopped by the addition of stop solution. Metabolite production per well was determined by measuring fluorescence using a fluorescent plate reader. Detailed experimental procedures for each enzyme are listed below. See, generally, Methodology of a high throughput method for measuring cytochrome P450 inhibition (Gentest Corporation, Technical Bulletin); Crespi, C. L.; Miller, V. P.; and Penman, B. W. (1997) Anal. Biochem. 248:188-190; and Geungerich, F. P. (1997) Adv. Pharm. 43:7-35.
A 0.2 ml/well reaction mixture containing 1 pmol CYP2C19 (P259), 1.3 mM NADP^+, 3.3 mM glucose-6-phosphate, 3.3 mM magnesium chloride, 0.4 U/ml glucose-6-phosphate dehydrogenase and 25 μM 3-cyano-7-ethoxycoumarin in 50 mM potassium phosphate (pH 7.4), was incubated at 37° C. for 45 minutes. Tranylcypromine, a standard inhibitor of CYP2C19, was serially diluted from the highest concentration of 500 μM and acted as a positive control. The test compound was serially diluted from the highest concentration of 100 μM. After incubation, the reaction was stopped by the addition of 75 μl stop solution (80% acetonitrile/20% 0.5 M Tris base) and fluorescence/well was read within 1 hour using a Spectra Fluor (Tecan) fluorescent plate reader. […]
The “% inhibition” was calculated as follows: [formula]
Concentration versus % inhibition curves were constructed in Prism (GraphPad, Inc.). The data was analyzed using “Top & Bottom Fixed” routine. […]

[1] = Pharmacokinetic properties (oral availability, elimination half-life, Cmax); type: in vivo; conditions: for half-life: blood, read-out: t½ elim. (converted)
Description: As used herein, bioavailability or oral availability refers to the rate and extent of absorption. Methods for determining bioavailability or oral availability are well known to those of skill in the art. For example, bioavailability or oral availability of any of the compounds described herein can be determined empirically by administration of the compound to an animal, followed by taking blood samples over time and measuring the blood concentration of the compound. In vivo half life (t1/2) is defined as the time it takes for the concentration of the compound in the blood to be reduced by one-half. Estimations of the area under the curve for intravenous administration can be used to estimate the area under the curve for oral administration, yielding bioavailability data. See, e.g., Milo Gibal (1991) Biopharmaceutics and Pharmacology, 4th edition (Lea and Sediger).

T1 sequence (P33261 whole entry): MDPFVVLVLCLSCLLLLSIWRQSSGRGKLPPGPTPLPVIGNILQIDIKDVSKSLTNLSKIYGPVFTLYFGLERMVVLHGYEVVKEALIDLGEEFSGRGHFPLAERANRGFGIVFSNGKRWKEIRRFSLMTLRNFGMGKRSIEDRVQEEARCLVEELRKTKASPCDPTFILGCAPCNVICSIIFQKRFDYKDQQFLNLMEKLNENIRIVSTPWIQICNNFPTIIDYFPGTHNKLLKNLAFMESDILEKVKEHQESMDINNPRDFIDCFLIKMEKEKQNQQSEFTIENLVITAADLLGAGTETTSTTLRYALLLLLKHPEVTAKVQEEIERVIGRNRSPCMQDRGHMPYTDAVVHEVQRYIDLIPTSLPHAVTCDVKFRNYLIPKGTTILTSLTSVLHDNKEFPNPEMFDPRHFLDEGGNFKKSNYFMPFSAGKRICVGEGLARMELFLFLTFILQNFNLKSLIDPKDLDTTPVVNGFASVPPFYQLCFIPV

SMILES	IC50 (CYP2C19) [µM]	half-life [1] [h]	Cmax ([1]; in vivo) [µg/mL]	Oral Availability ([1]; in vivo) [%]	t½ elim. ([1]; in vivo) [h]
CC(=O)c1cc(C)cc(C)c1NC(=O)c1sccc1S(=O)(=O)Nc1onc(C)c1C [Compound 7, N-(2-acetyl-4,6-dimethylphenyl)-3-{[(3,4 dimethyl-5-isoxazolyl)amino]sulfonyl}-2-thiophenecarboxamide]	126	6	157	148.1	–
Cc1cc(C)c(NC(=O)c2sccc2S(=O)(=O)Nc2onc(C)c2Cl)c(S(C)(=O)=O)c1 [Compound 42, 3-{[(4-chloro-3-methyl-5-isoxazolyl)amino]sulfonyl)-N-[2,4-dimethyl-6-(methylsulfonyl)phenyl]-2-thiophenecarboxamide]	6.2	1.5	10.3	–	–
Cc1cc(C)c(NC(=O)c2sccc2S(=O)(=O)Nc2onc(C)c2Cl)c(Cl)c1 [Compound 34, N-(2-chloro-4,6-dimethylphenyl)-3-{[(4-chloro-3-methyl-5-isoxazolyl)amino]sulfonyl}2-thiophenecarboxamide]	4.6	2.6	49.5	–	–
Cc1cc2c(cc1CC(=O)c1sccc1S(=O)(=O)Nc1onc(C)c1Cl)OCO2 [N-(4-chloro-3-methyl-5-isoxazolyl)-2-{[3,4-(methylenedioxy)-6-methylphenyl)acetyl]-thiophene-3-sulfonamide, reference compound]	0.2	–	133	43.6	4.5
